For series [1] the following is noted: DTA.
Series [2] in a line: Molar enthalpy of transition or fusion. The note with it: DSC.

These results are taken from the NIST ThermoML archive (doi:10.1021/je5001389).

± gives the expanded uncertainty stated by the source.

Take `CCCCCCCCCCCCCCCCCCCCCCCCCC` [hexacosane]: the Triple point temperature is recorded as 329.21 ± 0.5 K in series [1] (Crystal 1) and 326.4 ± 0.5 K in series [1] (Crystal 2). Further, the “Molar enthalpy of transition or fusion” value in series [2] (Crystal 1) amounted to 16.3 ± 0.43 kcal/mol; in series [2] (Crystal 2) it was 8.78 ± 0.239 kcal/mol.
In the case of `c1ccc2c(c1)oc1ccccc12` [dibenzo[bd]furan], the Triple point temperature in series [1] (Crystal) was determined as 353.87 ± 0.5 K. Besides, the “Molar enthalpy of transition or fusion” value in series [2] (Crystal) amounted to 5.33 ± 0.16 kcal/mol.
For `c1ccc(-c2ccccc2)cc1` [biphenyl] the same measures were 340.69 ± 0.5 K and 4.45 ± 0.136 kcal/mol.
